Values of other authors as cited in patent publication US20050063990A1, “Compositons and methods for weight loss” (priority 2003, published 2005).

What was measured:
[1] = animal studies (mice fed CLA)

In the case of conjugated linoleic acid [CLA], the “increase in use of fat as fuel (energy expenditure)” value [1] is listed as 74%, the abdominal fat (men classified as abdominally obese) is listed as “decrease abdominal fat” and the total fat mass (overweight and obese humans) is listed as “reduces total fat mass”.
